According to paper PMC12510138, “Asymmetric Synthesis and Biological Evaluation of 1,3‐ and 1,4‐Disubstituted Isoquinoline‐Containing Lipoxin A4 Analogues” (Chemistry (Weinheim an Der Bergstrasse, Germany), 2025):

How the values were obtained:
ALX/FPR2 [1] = biological target: T1, ALX/FPR2 (Homo sapiens, UniProt P25090); assay: intracellular Ca2+ flux (Fluo-4) in stably double transfected FPR2+/Gαq+ HEK-293 cells; wild-type HEK-293 cells as negative control; partial agonist; format: cell-based
T1 sequence (P25090 1-351): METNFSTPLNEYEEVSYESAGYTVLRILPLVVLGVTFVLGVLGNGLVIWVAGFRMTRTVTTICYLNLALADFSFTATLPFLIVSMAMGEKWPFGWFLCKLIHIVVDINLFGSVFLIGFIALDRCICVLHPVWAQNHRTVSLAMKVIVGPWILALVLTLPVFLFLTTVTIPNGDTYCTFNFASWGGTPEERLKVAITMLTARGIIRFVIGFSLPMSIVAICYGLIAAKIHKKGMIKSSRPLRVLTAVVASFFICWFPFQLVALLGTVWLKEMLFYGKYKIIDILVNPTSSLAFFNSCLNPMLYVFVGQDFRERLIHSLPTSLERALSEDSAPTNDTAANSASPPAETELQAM

ALX/FPR2 [2] = biological target: T1, ALX/FPR2; assay: intracellular Ca2+ flux (Fluo-4) in stably double transfected FPR2+/Gαq+ HEK-293 cells; wild-type HEK-293 cells as negative control; full endogenous agonist; format: cell-based

| intracellular Ca2+ flux (Fluo-4) in stably double transfected FPR2+/Gαq+ HEK-293 (ALX/FPR2 [1]) [nM] | intracellular Ca2+ flux (Fluo-4) in stably double transfected FPR2+/Gαq+ HEK-293 (ALX/FPR2 [2]) [nM] | Structure (SMILES) |
| --- | --- | --- |
| 100 | – | CCCCC[C@@H](O)c1nc(/C=C/[C@@H](O)[C@@H](O)CCCC(=O)OC)cc2ccccc12 [(1R)-8] |
| – | 10 | CCCCC[C@H](O)/C=C/C=C\C=C\C=C\[C@@H](O)[C@@H](O)CCCC(=O)O [compound 1, LXA4] |
